Assay results published in patent US4564619A, “Carbostyril derivative” (Otsuka Pharmaceutical Co., Ltd., priority 1982, dated 1986).

Columns and labels:
[1] = system: collagen-induced aggregation in rabbit platelets; assay: Inhibition of collagen-induced platelet aggregation in rabbit platelet rich plasma; assay type: cell-based; details: Oryctolagus cuniculus, read-out: Inhibition rate of collagen-induced aggregation; for inhibition at 100 µM (stock): Concentration of the test compound solution 10^-4 mole; for inhibition at 10 µM (stock): Concentration of the test compound solution 10^-5 mole
In short: (§1)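 Citrated rabbit PRP adjusted to 600,000 platelets/μl with PPP, preincubated with test compound 1 min at 37° C, then challenged with ADP (solution prepared at 7.5×10^-5 M) or collagen (solution at 200 μg/ml). Aggregation followed by light transmittance; % inhibition relative to control aggregation rate.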

[2] = system: ADP-induced aggregation in rabbit platelets; assay: Inhibition of ADP-induced platelet aggregation in rabbit platelet rich plasma; assay type: cell-based; details: Oryctolagus cuniculus, read-out: Inhibition rate of ADP-induced aggregation; for inhibition at 100 µM (stock): Concentration of the test compound solution 10^-4 mole; for inhibition at 10 µM (stock): Concentration of the test compound solution 10^-5 mole
In short: as §1

coronary artery = assay: Increased amount of the blood flow in coronary artery, intravenous administration, anesthetized dog; assay type: in vivo
Method: The change of blood flow in coronary artery and the change of blood pressure were measured by a method according to Yakura et al., [Japan Journal of Pharmacology, Vol. 57, pages 380-391 (1961)] and according to Taira, et al. [Clin. Exp. Pharmacol. Physiol., Vol. 6, pages 301-316, (1976)].
An adult bastard dog of either sex weighing 8-13 kg was anesthetized with sodium pentobarbital at the rate of 30 mg/kg by intraveneous administration, then the dog was fixed in supination and was theracotomized under a condition of forced breathing. After another intraveneous administration of sodium heparin at the rate of 500 U/kg, 100 U/kg per hour, the dog was subjected to the following experiments.
(2) Intraveneous administration
Morawitz's cannula was cannulated to the coronary sinus venosus through the auricula dextra cordis, and the blood in vein was circulated to the right carotid. The blood flow was measured by an electromagnetic blood flow meter equipped with a blood flow observation probe in the extracorporeal circulation path of the vein. The systolic force was measured by a systolometer (pick-up) placed at the left ventricle of heart, the blood pressure was measured from the femoral artery, and the heart rate was measured from the pulse. A compound to be tested was administered through the cannula being cannulated in femoral vein. The increased amount of the blood flow in coronary artery after the administration of the test compound is shown in Table 4, also the change of blood pressure is shown in Table 5.

[3] = Change of blood pressure, intravenous administration, anesthetized dog; assay type: in vivo; parameters: unit not given here; details: femoral artery
In short: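 Pentobarbital-anesthetized (30 mg/kg i.v.), heparinized, thoracotomized dogs of either sex, 8-13 kg, under forced breathing; compound given via femoral vein. Coronary sinus outflow measured by electromagnetic flowmeter in an extracorporeal venous circuit to the carotid; blood pressure recorded from femoral artery.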

Row | SMILES | inhibition at 100 µM (stock) [1] [%] | inhibition at 10 µM (stock) [1] [%] | inhibition at 100 µM (stock) [2] [%] | inhibition at 10 µM (stock) [2] [%] | Increased amount of the blood flow in coronary artery (coronary artery; 3 micrograms/kg) [mL/min] | Increased amount of the blood flow in coronary artery (coronary artery; 10 micrograms/kg) [mL/min] | Increased amount of the blood flow in coronary artery (coronary artery; 30 micrograms/kg) [mL/min] | Increased amount of the blood flow in coronary artery (coronary artery; 100 micrograms/kg) [mL/min] | Increased amount of the blood flow in coronary artery (coronary artery; 300 micrograms/kg) [mL/min] | Change of blood pressure ([3]; 3 micrograms/kg) | Change of blood pressure ([3]; 10 micrograms/kg) | Change of blood pressure ([3]; 30 micrograms/kg) | Change of blood pressure ([3]; 100 micrograms/kg) | Change of blood pressure ([3]; 300 micrograms/kg)
1 | C=CCOc1ccc(OCCCOC(=O)C2=C(C)NC(C)=C(C(=O)OC)C2c2cccc([N+](=O)[O-])c2)c2c1NC(=O)CC2 (centres unmarked) [Compound 1, 5-{3-[2,6-Dimethyl-5-methoxycarbonyl-4-(3-nitrophenyl)-1,4-dihydropyridin-3-carboxy]-propoxy}-8-propenyloxy-3,4-dihydrocarbostyril] | 51 | 15 | 19 | 1 | 4 | 34 | 63 | 62 | 42 | -6 | -17 | -36 | -42 | -46
2 | COC(=O)C1=C(C)NC(C)=C(C(=O)OCCOc2cccc3c2CCC(=O)N3)C1c1cccc([N+](=O)[O-])c1 (centres unmarked) [Compound 2, 5-{2-[2,6-Dimethyl-5-methoxycarbonyl-4-(3-nitrophenyl)-1,4-dihydropyridin-3-carboxy]-ethoxy}-3,4-dihydrocarbostyril] | 79 | 17 | 28 | 1 |  | 3 | 13 | 38 | 52 |  | -2 | -6 | -21 | -34
3 | COC(=O)C1=C(C)NC(C)=C(C(=O)OCCOc2ccc3c(c2)CCC(=O)N3)C1c1cccc([N+](=O)[O-])c1 (centres unmarked) [Compound 3, 6-{2-[2,6-Dimethyl-5-methoxycarbonyl-4-(3-nitrophenyl)-1,4-dihydropyridin-3-carboxy]-ethoxy}-3,4-dihydrocarbostyril] | 100 | 97 | 100 | 27 | 2 | 1 | 3 | 14 | 38 |  | -1 | -4 | -18 | -34
4 | COC(=O)C1=C(C)NC(C)=C(C(=O)OCCCOc2cccc3c2CCC(=O)N3)C1c1cccc([N+](=O)[O-])c1 (centres unmarked) [Compound 4, 5-{3-[2,6-Dimethyl-5-methoxycarbonyl-4-(3-nitrophenyl)-1,4-dihydropyridin-3-carboxy]-propoxy}-3,4-dihydrocarbostyril] | 23 | 11 | 16 | 4 | 3 | 8 | 22 | 62 | 90 | -5 | -15 | -25 | -34 | -51
